From ChEMBL document CHEMBL1159056, “Antitumor agents. 271: total synthesis and evaluation of brazilein and analogs as anti-inflammatory and cytotoxic agents” (Bioorg Med Chem Lett, 2010)
≈ marks a conversion by molar mass, not a printed value.

Columns and labels:
MDA-MB-231 = assay: Cytotoxicity against human MDA-MB-231 cells; format: functional, cell-based
MCF7 = assay: Cytotoxicity against human MCF7 cells; format: functional, cell-based
A549 = assay: Cytotoxicity against human A549 cells; format: functional, cell-based
Ca9-22 = assay: Cytotoxicity against human Ca9-22 cells; format: functional, cell-based
[1] = Antiinflammatory activity in human neutrophils assessed as inhibition of fMLP/cytochalasin B-induced superoxide anion generation; format: functional, cell-based; conditions: Neutrophil
[2] = Antiinflammatory activity in human neutrophils assessed as inhibition of fMLP/cytochalasin B-induced elastase release; format: functional, cell-based; conditions: Neutrophil
HepG2 = assay: Cytotoxicity against human HepG2 cells; format: functional, cell-based
[3] = Cytotoxicity against human Hep3B cells; format: functional, cell-based, Hep 3B2
[4] = Cytotoxicity against human KBVIN cells; format: functional, cell-based
DU-145 = assay: Cytotoxicity against human DU145 cells; format: functional, cell-based
KB = assay: Cytotoxicity against human KB cells; format: functional, cell-based
[5] = Antiinflammatory activity in human neutrophils assessed as inhibition of fMLP/cytochalasin B-induced elastase release at 10 ug/mL; format: functional; conditions: Neutrophil
[6] = Antiinflammatory activity in human neutrophils assessed as inhibition of fMLP/cytochalasin B-induced superoxide anion generation at 10 ug/mL; format: functional; conditions: Neutrophil

| Compound | IC50 (A549) | IC50 [1] [µM] | IC50 [2] [µM] | IC50 [4] [µM] | IC50 (DU-145) [µM] | IC50 (KB) [µM] | also measured |
| --- | --- | --- | --- | --- | --- | --- | --- |
| Oc1ccc2c(c1)OC[C@]1(O)Cc3cc(O)c(O)cc3[C@H]21 [BRAZILIN] | 15.6 µg/mL | 4.6 | 16.7 |  |  |  | IC50 (MDA-MB-231): 3.09 µg/mL (≈ 10.8 µM); IC50 (MCF7): 6.29 µg/mL (≈ 22 µM); IC50 (Ca9-22): 9.78 µg/mL (≈ 34.2 µM); IC50 (HepG2): 3.47 µg/mL (≈ 12.1 µM); IC50 [3]: 4.54 µg/mL (≈ 15.9 µM) |
| COC1=CC2=C3c4ccc(OC)cc4OCC3(OC)CC2=CC1=O (stereo not given) | > 20 µM | 4.65 | 13.6 | 16.9 | 17.5 | 15.2 |  |
| CCC(=O)OC1=CC2=C3c4ccc(OC(=O)CC)cc4OCC3(OC(=O)CC)CC2=CC1=O (stereo not given) | 13.5 µM | 1.2 | 1.9 | 11.3 | 11 | 6.6 |  |
| C=CCOC1=CC2=C3c4ccc(OCC=C)cc4OCC3(O)CC2=CC1=O (stereo not given) | 9.4 µM | 19.7 | 16.5 |  | 9.1 | 5.4 |  |
| COc1cccc2c1C(=O)c1c(O)c3c(c(O)c1C2=O)C[C@@](O)(C(=O)CO)C[C@@H]3O[C@H]1C[C@H](N)[C@H](O)[C@H](C)O1 [DOXORUBICIN] | 0.32 µg/mL |  |  |  |  |  | IC50 (MDA-MB-231): 1.05 µg/mL (≈ 1.93 µM); IC50 (MCF7): 0.42 µg/mL (≈ 0.773 µM); IC50 (HepG2): 0.34 µg/mL (≈ 0.626 µM); IC50 [3]: 0.56 µg/mL (≈ 1.03 µM) |
| COc1ccc2c(c1)OCC(O)(Cc1ccc(OC)c(OC)c1)C2O (stereo not given) | > 20 µM | 8.38 | 10.2 | > 20 | > 20 | > 20 |  |
| CCOC1=CC2=C3c4ccc(OCC)cc4OCC3(OCC)CC2=CC1=O (stereo not given) | > 20 µM | 23.9 |  | 17.9 | 18.1 | 18.9 | inhibition at 10 µg/mL [5]: 35.5% |
| O=C1C=C2CC3(O)COc4cc(OCc5ccccc5)ccc4C3=C2C=C1OCc1ccccc1 (stereo not given) |  |  | 8.76 |  |  |  | inhibition at 10 µg/mL [6]: 33.4% |
| CCC(=O)OC1=CC2=C3c4ccc(OC(=O)CC)cc4OCC3(O)CC2=CC1=O (stereo not given) | 7.8 µM | 1.65 | 3.28 |  | 7.1 | 7.7 |  |
| C=CCOC1=CC2=C3c4ccc(OCC=C)cc4OCC3(OCC=C)CC2=CC1=O (stereo not given) |  | 16.2 | 11.8 |  |  |  |  |
| COc1ccc2c(c1)OCC1(O)Cc3cc(OC)c(OC)cc3C21 (stereo not given) | > 20 µM | 4.52 |  | 7.6 | 13.8 | 10.5 | inhibition at 10 µg/mL [5]: 35.8% |
| O=C1C=C2CC3(O)COc4cc(O)ccc4C3=C2C=C1O (stereo not given) [BRAZILEIN] | 9.68 µg/mL | 4 | 14.2 |  |  |  | IC50 (MDA-MB-231): 2.36 µg/mL (≈ 8.3 µM); IC50 (MCF7): 3.96 µg/mL (≈ 13.9 µM); IC50 (Ca9-22): 8.63 µg/mL (≈ 30.4 µM); IC50 (HepG2): 3.15 µg/mL (≈ 11.1 µM); IC50 [3]: 3.42 µg/mL (≈ 12 µM) |
| CCN(CC)C(=O)OC1=CC2=C3c4ccc(OC(=O)N(CC)CC)cc4OCC3(O)CC2=CC1=O (stereo not given) |  |  | 15.5 |  |  |  | inhibition at 10 µg/mL [6]: -7% |
| COc1ccc2c(c1)OC/C(=C\c1ccc(OC)c(OC)c1)C2=O | > 20 µM |  |  | 18.3 | > 20 | > 20 |  |
| c1ccc2c(c1)[I+]c1ccccc1-2 [DIPHENYLENEIODONIUM] |  | 0.7 |  |  |  |  |  |
| CN(C)C(=O)OC1=CC2=C3c4ccc(OC(=O)N(C)C)cc4OCC3(O)CC2=CC1=O (stereo not given) |  |  |  |  |  |  | inhibition at 10 µg/mL [6]: 16.4%; inhibition at 10 µg/mL [5]: 11.4% |
| COC1=CC2=C3c4ccc(OC)cc4OCC3(O)CC2=CC1=O (stereo not given) |  |  |  |  |  |  | inhibition at 10 µg/mL [6]: 18.6%; inhibition at 10 µg/mL [5]: 26.8% |
| COc1ccc2c(c1)OCC1(OC1c1ccc(OC)c(OC)c1)C2=O (stereo not given) | > 20 µM | 1.9 |  | 6.4 | 10.6 | 9.8 | inhibition at 10 µg/mL [5]: 43.7% |
| CC(C)=CCOC1=CC2=C3c4ccc(OCC=C(C)C)cc4OCC3(O)CC2=CC1=O (stereo not given) |  | 19.7 | 10.1 |  |  |  |  |
| CC(=O)O[C@H]1C(=O)[C@@]2(C)[C@H]([C@H](OC(=O)c3ccccc3)[C@]3(O)C[C@H](OC(=O)[C@H](O)[C@@H](NC(=O)c4ccccc4)c4ccccc4)C(C)=C1C3(C)C)[C@]1(OC(C)=O)CO[C@@H]1C[C@@H]2O [PACLITAXEL] | 0.00193 µM |  |  | 0.00109 |  | 0.00155 |  |
| CCOC1=CC2=C3c4ccc(OCC)cc4OCC3(O)CC2=CC1=O (stereo not given) | 15.3 µM | 4.35 | 8.37 | 16.5 | 11 | 11.3 |  |
| CC(=O)OC1=CC2=C3c4ccc(OC(C)=O)cc4OCC3(O)CC2=CC1=O (stereo not given) | 8.1 µM | 18.7 |  |  | 8.2 | 10 | inhibition at 10 µg/mL [5]: 40.9% |
| O=C1C=C2CC3(OC(=O)c4ccccc4)COc4cc(OC(=O)c5ccccc5)ccc4C3=C2C=C1OC(=O)c1ccccc1 (stereo not given) |  |  | 13.2 |  |  |  | inhibition at 10 µg/mL [6]: 14.1% |
